Consider four compounds from paper PMC10197068 (Bioconjugate Chemistry, 2023).

“And” between values parts separate entries of the source, which are not always exact repeats. Equal entries are not always repeated.

For data set [1], the system named is G2T6 (K+) dimeric HTelo G4 DNA. The data set is described as follows: Emission titration with G2T6 (K+). It counts as binding, human. The settings on record: Table S2, unit not given, ligand 2 μM, 100 mM KCl, 10 mM Li cacodylate, pH 7.3, exc 440 nm, em 590 nm, triplicate. The protocol: (§1) Next, emission titrations were carried out with the emissive Pt^II compounds M2 and D3–8 and G4/duplex DNA to obtain association constants. Both Na^+ and K^+ stabilized monomeric and dimeric G4 DNA were investigated. Additionally, titrations were carried out with CT-DNA to evaluate the selectivity for G4 versus duplex DNA. Figure 5 summarizes the obtained results (see Figures S24–S37 and Table S2 for a full set of titration data). First discussed are the experiments conducted in Na^+ buffer, in which the G4 topology formed is antiparallel.[41] […] As discussed previously, this could potentially be caused by a “sandwiched” binding mode in which the metal-salphen complex sits between two G-quadruplex units. For dimeric metal-salphen complexes D3–8, however, there are several differences when compared to the CD melting studies. […] Upon increasing the linker length to a two-amino-acid sequence (RR and KK for compounds D4 and D5, respectively), larger Ka values were obtained with minimal change to the pattern of selectivity. […] Increasing the linker length to an eight-amino-acid sequence (RRRRRRRR) led to a similar stabilization of G2T6, while G1 stabilization increased.
(§2) G-Quadruplex oligonucleotides were purchased from Eurogentec (Belgium), and CT-DNA was purchased from Sigma-Aldrich. Stock solutions were prepared via dilution in the appropriate buffers to concentrations of 300–400 μM determined by UV–vis measurements in which increasing amounts of DNA were added to a cuvette and the absorbance at 260 nm recorded using an Agilent Cary UV 60 spectrometer. Prior to use, the DNA stock solutions were annealed by heating at 95 °C for 5 min and then cooling to room temperature overnight.
(§3) Experiments were carried out using a BMG Clariostar Microplate reader with Greiner Bio-One half-volume (100 μL/well) plates. Excitation was carried out at 440 nm and recorded from 500 to 700 nm in addition to a matrix scan at 590 nm. Titrations were carried out using G1, G2T1, and G2T6 (Na^+) G4 DNA (100 mM NaCl, 10 mM Li cacodylate, pH 7.3); G1, G2T1, and G2T6 (K^+) G4 DNA (100 mM KCl, 10 mM Li cacodylate, pH 7.3); and CT-DNA (100 mM KCl, 10 mM Li cacodylate, pH 7.3). Ligand concentration was kept constant at 2 μM, and the following DNA equivalents were tested: 0, 0.1, 0.2, 0.3, 0.4, 0.5, 0.75, 1, 1.5, 2, 3, and 5 (for CT-DNA 10× base pair equivalents were used, i.e., 1 to 50 BPE). Sample preparation was carried out by preparing stock solutions of double concentration ligand (4 μM) and DNA in the appropriate buffer, before 50 μL of each was added to the appropriate well and mixed. Experiments were conducted in triplicate and binding constants were obtained by curve fitting in Graphpad Prism 8 using eq 1.[46] [drawing 1] 1
(§4) Fluorescence response (y) was fitted against DNA concentration (x); R is the machine response, K is the association constant of ligand and DNA, L is the concentration of ligand, and n is the number of binding sites per DNA. The values of L and n were varied so that that the L was equal to the number of salphen units and n was equal to the number of G4 faces per DNA. The matrix scan results were used to plot the titration curves and 500–700 nm scan results were used to confirm that expected curve shapes and shifts were observed.

Data set [2] concerns G1 (Na+) monomeric HTelo G4 DNA. Nature of the data set: Emission titration with G1 (Na+). It counts as binding, human. Particulars: Table S2, unit not given, ligand 2 μM, 100 mM NaCl, 10 mM Li cacodylate, pH 7.3, exc 440 nm, em 590 nm, triplicate. The protocol:
as §1, §2, §3, §4

The subject of data set [3] is G1 (Na+) monomeric HTelo G4 DNA, AGGG(TTAGGG)3. The data set is described as follows: CD melting with G1 (Na+). It counts as binding, human. Particulars: CD melting at 295 nm, 25 to 95 °C at 2 °C/min; 100 mM NaCl, 10 mM Li cacodylate, pH 7.3; [G4 unit] 6 μM, [salphen unit] 12 μM. The protocol:
(§5) Next, the DNA binding properties of the monomeric and dimeric compounds were studied. […] The following notation is used: […] The CD melting experiments were conducted solely with Na^+ stabilized DNA, which forms an antiparallel topology in solution (cf., in the presence of K^+ a mixture of topologies is observed). During the assay the temperature was increased from 25 to 95 °C upon which the intensity of signals with negative ellipticity at ca. 265 nm and positive ellipticity at ca. 295 (characteristic of an antiparallel G4 structure) decreased-see Figure 4a. This indicates the expected unfolding of the G4 DNA structure as the temperature increases. The changes in intensity were subsequently used to produce the corresponding melting curves (Figure 4b) for each sequence in the absence and presence of the different compounds under study. From these curves, the ΔTm values for the different sequences and compounds were determined, and the results are summarized in Figure 4c (see Supplementary Table 1 for values). […] G-Quadruplex oligonucleotides were purchased from Eurogentec (Belgium), and CT-DNA was purchased from Sigma-Aldrich. […] Prior to use, the DNA stock solutions were annealed by heating at 95 °C for 5 min and then cooling to room temperature overnight. Experiments were carried out on a Jasco J-810 spectrophotometer using a 1 cm quartz cuvette. Temperature was controlled using a Peltier module. The signal at 295 nm was monitored as temperature was increased for 25 to 95 °C at a rate of 2 °C/min. CD melting experiments were carried out with the appropriate G4 DNA (100 mM NaCl, 10 mM Li cacodylate, pH 7.3). Sample preparation was carried out by combining stock solutions of ligand and DNA in the appropriate buffer. […] Melting temperatures were obtained by curve fitting in Graphpad Prism 8. The data was normalized and fitted to a variable slope Hill equation, and the melting temperature was defined at the temperature at which y = 0.5.

Data set [4] deals with G2T6 (Na+) dimeric HTelo G4 DNA, AGGG(TTAGGG)3(TTA)5(TTAGGG)4. Nature of the data set: CD melting with G2T6 (Na+). It counts as binding, human. Particulars: for ΔTm G2T6 (Na+): CD melting at 295 nm, 25 to 95 °C at 2 °C/min, 100 mM NaCl, 10 mM Li cacodylate, pH 7.3, [G4 unit] 6 μM (3 μM dimeric sequence), [salphen unit] 12 μM. The protocol: as §5
Data set [5] deals with G2T1 (K+) dimeric HTelo G4 DNA. Nature of the data set: Emission titration with G2T1 (K+). It counts as binding, human. Particulars: Table S2, unit not given, ligand 2 μM, 100 mM KCl, 10 mM Li cacodylate, pH 7.3, exc 440 nm, em 590 nm, triplicate. The protocol: as §1, §2, §3, §4
The test system of data set [6] is G2T6 (Na+) dimeric HTelo G4 DNA. Nature of the data set: Emission titration with G2T6 (Na+). It counts as binding, human. The settings on record: Table S2, unit not given, ligand 2 μM, 100 mM NaCl, 10 mM Li cacodylate, pH 7.3, exc 440 nm, em 590 nm, triplicate. The protocol:
as §1, §2, §3, §4

Data set [7] concerns G2T1 (Na+) dimeric HTelo G4 DNA, AGGG(TTAGGG)7. Nature of the data set: CD melting with G2T1 (Na+). The settings on record: for ΔTm G2T1 (Na+): CD melting at 295 nm, 25 to 95 °C at 2 °C/min, 100 mM NaCl, 10 mM Li cacodylate, pH 7.3, [G4 unit] 6 μM (3 μM dimeric sequence), [salphen unit] 12 μM. It counts as binding, human. The protocol: as §5
Data set [8] relates to G1 (K+) monomeric HTelo G4 DNA. The data set is described as follows: Emission titration with G1 (K+). The settings on record: Table S2, unit not given, ligand 2 μM, 100 mM KCl, 10 mM Li cacodylate, pH 7.3, exc 440 nm, em 590 nm, triplicate. It counts as binding, human. The protocol:
as §1, §2, §3, §4

The subject of data set [9] is G2T1 (Na+) dimeric HTelo G4 DNA. The data set is described as follows: Emission titration with G2T1 (Na+). It counts as binding, human. Particulars: Table S2, unit not given, ligand 2 μM, 100 mM NaCl, 10 mM Li cacodylate, pH 7.3, exc 440 nm, em 590 nm, triplicate. The protocol:
as §1, §2, §3, §4

Data set [10] deals with G2T6 (DNA, G4) AGGGTTAGGGTTAGGGTTAGGGTTATTATTATTATTATTAGGGTTAGGGTTAGGGTTAGGG
Nature of the data set: CD melting at 295 nm. Particulars: 100 mM NaCl; 10 mM Li cacodylate, pH 7.3; 12 μM compound, 3 μM DNA.

Data set [11] relates to G2T1 (DNA, G4) AGGGTTAGGGTTAGGGTTAGGGTTAGGGTTAGGGTTAGGGTTAGGG
The data set is described as follows: CD melting at 295 nm. Particulars: 100 mM NaCl; 10 mM Li cacodylate, pH 7.3; 12 μM compound, 3 μM DNA.

With RRRR [Compound D6], the “Association constant G2T6 (K+), mean” value in [1] came to 0.52. The “Association constant G1 (Na+), mean” value in data set [2] is reported as 0.07. Besides, in [3], the “ΔTm G1 (Na+)” value is 3.49 °C. The “ΔTm G2T6 (Na+)” value in [4] was 13.27 °C. The “Association constant G2T1 (K+), mean” value in [5] was determined as 0.18. The “Association constant G2T6 (Na+), mean” value in data set [6] was found to be 0.99. The “ΔTm G2T1 (Na+)” value in data set [7] turned out to be 14.83 °C. In addition, the “Association constant G1 (K+), mean” value in data set [8] is reported as 0.28. Also, the “Association constant G2T1 (Na+), mean” value in data set [9] came to 0.29.

RKKR [Compound D7]: in data set [1], the “Association constant G2T6 (K+), mean” value was found to be 0.42. For the same compound, the “Association constant G1 (Na+), mean” value in data set [2] stood at 0.21. For the same compound, in data set [3], the “ΔTm G1 (Na+)” value amounted to 2.6 °C. The “ΔTm G2T6 (Na+)” value in data set [4] was 13.81 °C and 13.8 °C. In [4] (ΔTm of D7 relative to D3), the “fold increase in stabilization of G2T6” value is given as 2.1 fold. For the same compound, the “Association constant G2T1 (K+), mean” value in data set [5] was 0.18. Also, the “Association constant G2T6 (Na+), mean” value in data set [6] turned out to be 0.69. Also, the “ΔTm G2T1 (Na+)” value in data set [7] was 16.33 °C and 16.3 °C. In addition, the “fold increase in stabilization of G2T1” value in data set [7] (ΔTm of D7 relative to D4) is 1.1 fold. In data set [8], the “Association constant G1 (K+), mean” value is given as 0.39. Also, in data set [9], the “Association constant G2T1 (Na+), mean” value is 0.36.

Turning to `C[N+](C)(C)CCOc1ccc2c(c1)[O][Ni][O]c1cc(OCC[N+](C)(C)C)ccc1C=Nc1cc(C(=O)NCc3cn(CCOCCOCCn4cc(CNC(=O)c5ccc6c(c5)N=Cc5ccc(OCC[N+](C)(C)C)cc5[O][Ni][O]c5cc(OCC[N+](C)(C)C)ccc5C=N6)nn4)nn3)ccc1N=C2.F[P-](F)(F)(F)(F)F.F[P-](F)(F)(F)(F)F.F[P-](F)(F)(F)(F)F.F[P-](F)(F)(F)(F)F` [Compound D2], in data set [3], the “ΔTm G1 (Na+)” value was 2.66 °C. Further, the “ΔTm G2T6 (Na+)” value in data set [4] was determined as 11.14 °C. In addition, the “ΔTm G2T1 (Na+)” value in data set [7] was found to be 13.80 °C.

Regarding `C[N+](C)(C)CCOc1ccc(C=Nc2ccccc2N=Cc2ccc(OCC[N+](C)(C)C)cc2[O-])c([O-])c1.[Pt+2]`, the results for the ΔTm in data set [10] and in data set [11] were 19 °C and 21 °C, respectively.

Broadly, the ΔTm is the shift of the melting midpoint relative to a reference.
